US10172837B2, “Insulin sensitisers and methods of treatment” (NAIA Metabolic, Inc., priority 2007, dated 2019)

Experiments:
Type in all cases: in vivo, Mus Musculus
[1] = system: Diet-Induced Obese (DIO) Mice; assay: Fasting plasma glucose in diet-induced obese mice
[2] = Body weight of treated diet-induced obese mice; settings: Day 0 or Day 13, DIO mice
Description: Male C57Bl/6J mice were obtained at 8 weeks of age from Animal Resources Centre (Canning Vale, Western Australia). Animals were individually housed and allowed free movement and ad libitum access to water and food. Animals were maintained on a 12 hour light (6 am-6 pm) and 12 hour dark (6 pm-6 am) cycle. Animals were monitored daily. Body weight, food and water intake were recorded 3 times a week.

[3] = system: db/db mice; assay: Fasting plasma glucose in db/db mice; settings: for FPG Day 0: Methazolamide 20 mg/kg group
Text: The db/db mouse model comprises mice with a homozygous mutation of the leptin receptor gene that ablates leptin signalling in the hypothalamus and elsewhere. The db/db mouse model is commonly used to study the genetic and physiological mechanisms of obesity and type II diabetes. […] Leptin acts through the leptin receptor to control whole-body energy homeostasis by regulating both appetite and energy expenditure. Loss of function of the leptin receptor gene results in hyperphagia and slower metabolism, leading to obesity and eventually diabetes. […] Dosing solutions of the test articles: Methazolamide, Metformin and Methazolamide/Metformin were prepared fresh on each dosing day and stored at room temperature, protected from light. The compound was formulated in sterile vehicle: […] Stock solutions were prepared by dissolving the compound in NMP:PEG300 (1:2, v/v). Saline was added to the stock solution prior to administration of the compound. The solutions were mixed by vortexing immediately prior to dosing to ensure a homogeneous suspension of the compound. Male C57Bl/6J db/db mice were obtained at 10 weeks of age from Animal Resources Centre ([…], Western Australia). Animals were individually housed and allowed free movement and ad libitum access to water and food. Animals were maintained on a 12 hour light (6 am-6 pm) and 12 hour dark (6 pm-6 am) cycle. Animals were monitored daily. Body weight, food and water intake were recorded 3 times a week. Mice were fed a standard chow diet, and used after a two week acclimatisation period. […] The fasting plasma glucose levels of the animals was tested prior to commencement of the study and then every 3-4 days during dosing. The animals were fasted for a period of 4 hours after dosing and prior to the taking of a blood sample via a tail nick. Blood glucose levels were monitored using commercially available glucometers (Accuchek Advantage, Roche) based on the electric current generated when a blood drop is spotted on a test strip resulting in conversion of the glucose present in the sample to gluconolactone by the glucose dehydrogenase enzyme, in the presence of the coenzyme (PQQ).

[4] = system: Diet-Induced Obese (DIO) Mice; assay: ipGTT (glucose tolerance) in diet-induced obese mice
[5] = Body weight of treated db/db mice; settings: Day 0, Day 8 or Day 18, db/db mice
Description: Male C57Bl/6J db/db mice were obtained at 10 weeks of age from Animal Resources Centre ([…], Western Australia). Animals were individually housed and allowed free movement and ad libitum access to water and food. Animals were maintained on a 12 hour light (6 am-6 pm) and 12 hour dark (6 pm-6 am) cycle. Animals were monitored daily. Body weight, food and water intake were recorded 3 times a week. Mice were fed a standard chow diet, and used after a two week acclimatisation period.

[6] = Methazolamide 10 mg/kg oral gavage (Table 5-1)
[7] = Methazolamide 10 mg/kg oral gavage (Table 8-1)
[8] = Methazolamide 20 mg/kg group, before dosing
[9] = Methazolamide 20 mg/kg oral gavage
[10] = Methazolamide 50 mg/kg group, before dosing
[11] = Methazolamide 50 mg/kg oral gavage
[12] = Methazolamide 100 mg/kg group, before dosing
[13] = Methazolamide 100 mg/kg oral gavage
[14] = Methazolamide 10 mg/kg oral gavage (Table 5-2)
[15] = Methazolamide 10 mg/kg oral gavage (Table 8-2)

With `CC(=O)/N=c1\sc(S(N)(=O)=O)nn1C` [Methazolamide, 5-acetylimino-4-methyl-Δ^2-1,3,4-thiadiazoline-2-sulfonamide] the “effect on fasting plasma glucose levels of diet-induced obese mice” value [1] was “reduced the fasting plasma glucose levels”, the “FPG Day −1” value ([1]; Methazolamide 10 mg/kg group, before dosing (Table 5-1)) was 6.92 ± 0.55 mM and the “FPG Day −1” value ([1]; Methazolamide 10 mg/kg group, before dosing (Table 8-1)) was 6.1 ± 0.5 mM. For the same compound, the “Delta FPG Treatment Day 13 vs Day −1” value [1, 6] was 12%, the “FPG Day 13” value [1, 6] was 7.75 ± 0.43 mM and the “FPG Treatment vs Vehicle Day 13” value [1, 6] was 1%. The “Delta FPG Treatment Day 13 vs Day −1” value [1, 7] was 8%, the “Delta FPG Treatment vs Vehicle Day 13” value [1, 7] was −12% and the “FPG Day 13” value [1, 7] was 6.6 ± 0.4 mM. For the same compound, the “FPG Day −1” value [1, 8] was 7.28 ± 0.47 mM, the “Delta FPG Treatment Day 13 vs Day −1” value [1, 9] was −5% and the “FPG Day 13” value [1, 9] was 6.90 ± 0.24 mM. For the same compound, the “FPG Treatment vs Vehicle Day 13” value [1, 9] was −10%^, the “FPG Day −1” value [1, 10] was 7.20 ± 0.71 mM and the “Delta FPG Treatment Day 13 vs Day −1” value [1, 11] was −13%. The “FPG Day 13” value [1, 11] was 6.28 ± 0.31 mM, the “FPG Treatment vs Vehicle Day 13” value [1, 11] was −18%^1 and the “FPG Day −1” value [1, 12] was 7.63 ± 0.55 mM. The “Delta FPG Treatment Day 13 vs Day −1” value [1, 13] was −21%, the “FPG Day 13” value [1, 13] was 6.05 ± 0.15 mM and the “FPG Treatment vs Vehicle Day 13” value [1, 13] was −21%^2. The “difference in body weight between treated groups” value [2] was “no difference in body weight”, the “FPG Day 0” value ([3]; before dosing (Table 9-1)) was 23.93 ± 1.6 mM and the “FPG Day 0” value ([3]; before dosing (Table 9-2)) was 23.93 ± 1.6 mM. For the same compound, the “Delta FPG Treatment Day 8 vs Day 0” value [3, 9] was −32%^1, the “Delta FPG Treatment Day 18 vs Day 0” value [3, 9] was −29%^1 and the “FPG Day 8” value [3, 9] was 16.30 ± 1.8 mM. The “FPG Day 18” value [3, 9] was 17.00 ± 2.5 mM, the “FPG Treatment vs Vehicle Day 8” value [3, 9] was −30%^4 and the “FPG Treatment vs Vehicle Day 18” value [3, 9] was −38%^3. For the same compound, the “effect on fasting plasma glucose levels of db/db mice” value ([3]; after 8 days of treatment) was “reduced the fasting plasma glucose levels”, the “effect on fasting plasma glucose levels of db/db mice” value ([3]; after 18 days of treatment) was “reduced the fasting plasma glucose levels” and the “effect on glucose tolerance of diet-induced obese mice” value [4] was “increased the glucose tolerance”. The “AUC Day −1” value ([4]; Methazolamide 10 mg/kg group, before dosing (Table 5-2)) was 1038 ± 129 mM·min, the “AUC Day −1” value ([4]; Methazolamide 10 mg/kg group, before dosing (Table 8-2)) was 1190 ± 62 mM·min and the “AUC Day 13” value [4, 14] was 901 ± 139 mM·min. For the same compound, the “Delta AUC Treatment Day 13 vs Day −1” value [4, 14] was −13%^, the “Delta AUC Treatment vs Vehicle Day 13” value [4, 14] was −8% and the “AUC Day 13” value [4, 15] was 1131 ± 95 mM·min. For the same compound, the “AUC Day 13 Treat vs Veh” value [4, 15] was −6%, the “Delta AUC Day 13 vs Day −1” value [4, 15] was −5% and the “AUC Day −1” value [4, 8] was 1070 ± 77 mM·min. The “AUC Day 13” value [4, 9] was 619 ± 106 mM·min, the “Delta AUC Treatment Day 13 vs Day −1” value [4, 9] was −42%^1 and the “Delta AUC Treatment vs Vehicle Day 13” value [4, 9] was −37%^1. The “AUC Day −1” value [4, 10] was 1073 ± 112 mM·min, the “AUC Day 13” value [4, 11] was 710 ± 87 mM·min and the “Delta AUC Treatment Day 13 vs Day −1” value [4, 11] was −34%^1. The “Delta AUC Treatment vs Vehicle Day 13” value [4, 11] was −27%^1, the “AUC Day −1” value [4, 12] was 1080 ± 59 mM·min and the “AUC Day 13” value [4, 13] was 691 ± 60 mM·min. The “Delta AUC Treatment Day 13 vs Day −1” value [4, 13] was −36%^2, the “Delta AUC Treatment vs Vehicle Day 13” value [4, 13] was −29%^1 and the “difference in body weight vs Vehicle group” value [5] was “no difference in body weight”.
